Assay results published in patent publication US8642765B2, “Azaindole-indole coupled derivatives, preparation methods and uses thereof” (priority 2007, dated 2014).
Where two headings read alike, the source gives them in different places.

Legend:
[1] = test system: DU145 tumor cells; experiment: MTT growth inhibition of DU145 cells, 72 h; type: cell-based, human; details: for IC50 / IC90: DU145, 72 h, MTT; for growth inhibitory effects on tumor cells (in words): discussion of the MTT assay, DU145
Procedure: DU145 cells were inoculated in RPM11640 medium containing 10% calf serum, incubated at 37° C., 5% CO2 in CO2 incubator, and passaged every 2-3 days. In this experiment, cells were grown in logarithmic growth phase.
In the experiment, the cells at logarithmic growth phase were formulated into suspension, and the viability by trypan blue staining was more than 98%. The suspension was divided into several groups: 1 as blank control group (cell suspension); and 2 as experimental groups (cell suspension plus drugs).
(§1) The drugs were formulated into a stock solution in DMSO, and the concentration of the stock solution was 20 mmol (used within 4 hours). In the experiment, the work solution of the drugs was diluted with RPM11640 medium containing 10% calf serum under aseptic condition, to a final concentration of 80 μM. The drug concentrations were increased by 2 times (1.25-20 μM).
(§2) The DU145 cell in logarithmic growth phase were selected, centrifuged, counted, and formulated into a cell suspension (2.5×10^4/ml) with RPM11640 medium containing 10% calf serum. The cell suspension were inoculated into 96-well plates at a density of 5000 cells/200 μl per well, incubated for 24 hours at 37° C., 5% CO2. According to the above concentration of the drug, the cells were inoculated to 6 groups (including one control group), with 8 wells per group. After incubating for 72 hours, the viability of cells was measured by MTT assay. The absorbance value (A) was measured with detection wavelength at 540 nm, reference wavelength at 630 nm. The inhibitory rate (I) was calculated by the following equation, where T was the absorbance value of the experimental groups, and C was the absorbance value of the blank control group: I=(1−T/C)×100%
(§3) The regression equation was calculated by the concentration-inhibitory rate curve, to obtain 50% and 90% inhibition concentration (IC50 and IC90, μM).

[2] = Dissolution of solid dispersion preparations; type: physicochemical; details: 45 minute, 100 ml of 1% sodium dodecyl sulfate solution, 37±0.5° C., 100 r/min
Procedure: Instruments: RCZ-5A capacity medicament dissolve and infiltrate apparatus is made by Tianjin University Precision Instruments Factory. UV1900 UV-Vis spectrophotometer is made by Shanghai Yayan Electronic Science And Technology Co., Ltd.
Dissolution determination methods: According to the third method of XC dissolution assay stated in the appendix of Chinese Pharmacopeia (Edition 2005), the rotation speed was 100 r/min, the temperature was 37±0.5° C., and the dissolution medium was 100 ml of 1% sodium dodecyl sulfate solution degassed ultrasonically. A specimen was withdrawn at 45 minute and immediately filtered through a 0.8 μm water membrane. The filtrate was quantitatively diluted. The absorbance was measured by UV1900, and the dissolution percentage was calculated.

[3] = Safety profile (stated in the discussion, no method described); details: discussion of Example 2; no data shown
[4] = Solubility assay in solvents; type: physicochemical; details: for solubility in Acetone / solubility in deionized water / solubility in ethanol / solubility in methanol / solubility in petroleum ether (boiling range: 60~90° C.) / solubility in trichlormethane: 5 mg in 2 ml solvent, room temperature (20° C.); for change of lipid solubility / change of water solubility: 129 relative to 91, 91 relative to indirubin
Procedure: Testing Methods: 5 mg of the compound no. 129 and 91 were respectively added into 2 ml solvent at room temperature (20° C.), and stirred to dissolve.

[5] = test system: mouse melanoma cell line K111; experiment: MTT growth inhibition of K111 cells; type: cell-based; details: Klll, read-out: IC50 (μM) Tumor cells Klll
Procedure: as §1, §2, §3
(§4) 1. Tumor Cells: human hepatoma cell lines 7701 QGY and HepG-2, human lung adenocarcinoma cell line A549, human chronic myelocytic leukemia cell line K562, human leukemia cell line CEM and mouse melanoma cell line K111.
(§5) 2. Using the methods described in example 2, the biological activity of a portion of newly synthesized 5- or 7-azaindirubin derivatives and 5- or 7-azaisoindigo derivatives (20 compounds) for inhibiting various tumor cells growth were determined.

[6] = test system: human hepatoma cell line HepG-2; experiment: MTT growth inhibition of HepG-2 cells; type: cell-based; details: HepG-2, MTT, read-out: IC50 (μM) Tumor cells HepG-2
Procedure: as §1, §2, §3, §4, §5

[7] = test system: human leukemia cell line CEM; experiment: MTT growth inhibition of CEM cells; type: cell-based; details: read-out: IC50 (μM) Tumor cells CEM
Procedure: as §1, §2, §3, §4, §5

[8] = test system: human chronic myelocytic leukemia cell line K562; experiment: MTT growth inhibition of K562 cells; type: cell-based; details: read-out: IC50 (μM) Tumor cells K562
Procedure: as §1, §2, §3, §4, §5

[9] = test system: human hepatoma cell line 7701 QGY; experiment: MTT growth inhibition of 7701 QGY cells; type: cell-based; details: read-out: IC50 (μM) Tumor cells 7701 QGY
Procedure: as §1, §2, §3, §4, §5

[10] = test system: human lung adenocarcinoma cell line A549; experiment: MTT growth inhibition of A549 cells; type: cell-based; details: read-out: IC50 (μM) Tumor cells A549
Procedure: as §1, §2, §3, §4, §5

[11] = test system: phospho-CDK2^Thr160; experiment: Western blot of phospho-CDK2 in DU145 cells; type: cell-based, human; details: DU145, treated for 24 hours, FIG. 3
Description: (§6) Reagents: The tested compounds were the same as example 2. Unless otherwise indicated, other chemical reagents were purchased from Sigma Chemical Company (USA). Polyacrylamide gel used in protein electrophoresis, SDS, electrophoresis buffer, transfer buffer protein, nitrocellulose membrane were purchased from American Bio-Rad Life Science Company. Western blotting detection kits and films were purchased from American GE Company. Phospho-CDK2^Thr160 antibody, endogenous cyclin-dependent inhibitor p27 antibody, CyclinD1 and β-Actin antibody were purchased from American Cell Signaling Inc., DAKO and Santa Cruz Biochemical Technology Company.
(§7) Tumor cells and methods for cell culture were the same as example 2.
(§8) Phospho-Cdc2, p27, and Cyclin D1 were Detected by Western Blot: The human prostate cancer cell lines DU145 at logarithmic growth phase were treated with compounds No. 124 and No. 126 (concentration is shown in FIG. 3) for 24 hours. The cells were harvested and washed. Total cellular proteins were extracted and quantified as described previously^[14]. 50 μg of protein was separated on a SDS-PAGE, electro-transferred to nitrocellulose filters. Western blot were performed using specific antibodies against Phospho-CDK2, endogenous cyclin-dependent inhibitor p27 and CyclinD1, with β-Actin antibody as an internal standard. The result was recorded by ECL films.

[12] = test system: Cyclin D1; experiment: Western blot of Cyclin D1 in DU145 cells; type: cell-based, human; details: DU145, treated for 24 hours, FIG. 3
Description: as §6, §7, §8

[13] = test system: endogenous cyclin-dependent inhibitor p27; experiment: Western blot of p27 in DU145 cells; type: cell-based, human; details: DU145, treated for 24 hours, FIG. 3
Description: as §6, §7, §8

[14] = Homo sapiens, DU-145, 72 h, Table 5
[15] = Homo sapiens, DU-145, 72 h, Table 6

| Structure (SMILES) | IC50 [5] | IC50 [6] | IC50 ([1]; Table 6) | IC90 ([1]; Table 6) | IC50 [7] | IC50 [8] | IC50 [9] | IC50 [10] | also measured |
| --- | --- | --- | --- | --- | --- | --- | --- | --- | --- |
| O=C1C(=C2C(=O)N(Cc3ccccc3)c3ccncc32)Nc2ccc(Br)cc21 [Compound 18] |  |  |  |  |  |  |  |  | IC50 ([1]; Table 5): 6.6 µM; IC90 ([1]; Table 5): 23.5 µM; Dissolution percentages (%) [2]: 4% |
| CC(C)N1C(=O)C(=C2Nc3ccc(Br)cc3C2=NO)c2cnccc21 [Compound 30] |  |  |  |  |  |  |  |  | IC50 ([1]; Table 5): 3.3 µM; IC90 ([1]; Table 5): 7 µM; growth inhibitory effects on tumor cells (in words) [1]: relatively significant growth inhibitory effects; safety profile [3]: good safety profile |
| CCN1C(=O)/C(=C2\Nc3ccccc3\C2=N/O)c2ccccc21 [Compound 91, 1-ethyl-indirubin-3′-oxime, reference compound] |  |  |  |  |  |  |  |  | solubility in Acetone [4]: easily soluble; solubility in deionized water [4]: insoluble; solubility in ethanol [4]: dissoluble; solubility in methanol [4]: slightly soluble; solubility in petroleum ether (boiling range: 60~90° C.) [4]: slightly soluble; solubility in trichlormethane [4]: easily soluble; change of lipid solubility [4]: increased; change of water solubility [4]: decreased; IC50 [1, 14]: 4.2 µM; IC90 [1, 14]: 21.8 µM; IC50 [1, 15]: 4.1 µM; IC90 [1, 15]: 22 µM |
| CN1C(=O)C(=C2Nc3ccc(Cl)cc3C2=NO)c2cccnc21 [Compound 116] | 6.3 µM | 20.5 µM | 6.9 µM | 16 µM | 5.6 µM | 8.2 µM | 11.1 µM | 12.5 µM | growth inhibitory effects on tumor cells (in words) [1]: relatively significant growth inhibitory effects |
| CCN1C(=O)C(=C2Nc3ccc(Br)cc3C2=NO)c2cccnc21 [Compound 119] | 8.1 µM | 8.1 µM | 4 µM | 12 µM | 9 µM | 7.9 µM | 13.5 µM | 8.5 µM |  |
| CC(C)N1C(=O)C(=C2Nc3ccc(Br)cc3C2=NO)c2cccnc21 [Compound 121] | 6 µM | 16 µM | 3.1 µM | 29 µM | 11.3 µM | 11.5 µM | 14.9 µM | 18.1 µM | growth inhibitory effects on tumor cells (in words) [1]: relatively significant growth inhibitory effects; safety profile [3]: good safety profile |
| CCCCN1C(=O)C(=C2Nc3ccc(Cl)cc3C2=NO)c2cccnc21 [Compound 124] |  |  | 1.8 µM | 12 µM |  |  |  |  | growth inhibitory effects on tumor cells (in words) [1]: relatively significant growth inhibitory effects; level of CDK2 activity (phosphorylation) [11]: decreased in a dose-dependent manner; protein expression of cyclin D1 [12]: significantly decreased; safety profile [3]: good safety profile; expression of endogenous cyclin-dependent inhibitor p27 [13]: significantly increased |
| O=C1C(=C2Nc3ccc(Cl)cc3C2=NO)c2cccnc2N1Cc1ccccc1 [Compound 126] | 14.2 µM | 16.3 µM | 7.1 µM | 19 µM | 8.1 µM | 5.1 µM | 11.2 µM | 9.6 µM | level of CDK2 activity (phosphorylation) [11]: decreased in a dose-dependent manner; protein expression of cyclin D1 [12]: significantly decreased; expression of endogenous cyclin-dependent inhibitor p27 [13]: significantly increased |
| CN1C(=O)C(=C2Nc3ccccc3C2=NO)c2cccnc21 [Compound 128] | 3.6 µM | 12.6 µM | 2.7 µM | 7.1 µM | 10.5 µM | 7.7 µM | 7.6 µM | 10 µM |  |
| CCN1C(=O)/C(=C2\Nc3ccccc3\C2=N/O)c2cccnc21 [Compound 129] |  |  |  |  |  |  |  |  | IC50 ([5]; Mus musculus): 4.2 µM; IC50 ([6]; Homo sapiens, HepG2): 13 µM; solubility in Acetone [4]: slightly soluble; solubility in deionized water [4]: slightly soluble; solubility in ethanol [4]: slightly soluble; solubility in methanol [4]: soluble; solubility in petroleum ether (boiling range: 60~90° C.) [4]: insoluble; solubility in trichlormethane [4]: slightly soluble; change of lipid solubility [4]: decreased; change of water solubility [4]: increased; IC50 [1, 15]: 3.8 µM; IC90 [1, 15]: 12 µM; IC50 ([7]; Homo sapiens, CCRF-CEM): 7 µM; IC50 ([8]; Homo sapiens): 3.4 µM; IC50 ([9]; Homo sapiens): 7.4 µM; IC50 ([10]; Homo sapiens): 14.1 µM |
| CN1C(=O)C(=C2C(=O)Nc3ccc(F)cc32)c2cccnc21 [Compound 154] | 12 µM | 29.3 µM | 43 µM | > 100 µM | 9.8 µM | 19 µM | 36 µM | 12.4 µM |  |
| CC(=O)OCC1OC(N2C(=O)C(=C3C(=O)Nc4ccccc43)c3cc(C)cnc32)C(OC(C)=O)C1OC(C)=O (centres unmarked) [Compound 158] | 8.3 µM | 18 µM | 10.5 µM | 49 µM | 12 µM | 5.8 µM | 44 µM | 22.3 µM |  |
| CCN1C(=O)C(=C2C(=O)N(CC)c3ncccc32)c2cc(Br)ccc21 [Compound 160] | 15 µM | 31.1 µM | 14 µM | 61 µM | 10.8 µM | 10.2 µM | 25.4 µM | 29.1 µM |  |
| CC(C)N1C(=O)C(=C2C(=O)Nc3ccccc32)c2cccnc21 [Compound 164, 1-isopropyl-7-azaisoindigo] | 9.1 µM | 29 µM | 9.05 µM | 19 µM | 12.7 µM | 18.6 µM | 33.1 µM | 23.3 µM |  |
| CCCCN1C(=O)C(=C2C(=O)Nc3ccc(Br)cc32)c2cccnc21 [Compound 170] | 18.5 µM | 25 µM | 15 µM | 90 µM | 8.5 µM | 10.3 µM | 28 µM | 19.5 µM |  |
